Experimental data taken from ChEMBL document CHEMBL3745709, “Synthesis of novel ethyl 1-ethyl-6-fluoro-7-(fatty amido)-1,4-dihydro-4-oxoquinoline-3-carboxylate derivatives and their biological evaluation” (Bioorg Med Chem Lett, 2016).
Values after ≈ are worked out from the molar mass of the structure shown.

Tests used:
[1] = Cytotoxicity against human DU145 cells assessed as reduction in cell viability by MTT assay; format: functional, cell-based; details: DU-145
[2] = test system: A549; test: Cytotoxicity against human A549 cells assessed as reduction in cell viability by MTT assay; format: functional, cell-based
[3] = Cytotoxicity against human SKOV3 cells assessed as reduction in cell viability by MTT assay; format: functional, cell-based; details: SK-OV-3
[4] = test system: MCF7; test: Cytotoxicity against human MCF7 cells assessed as reduction in cell viability by MTT assay; format: functional, cell-based
[5] = Antioxidant activity assessed as DPPH free radical scavenging activity; format: physicochemical
[6] = test system: Micrococcus luteus; test: Antibacterial activity against Micrococcus luteus MTCC 2470 assessed as inhibition zone after 24 hrs at 30 degC by well diffusion method; format: functional; details: MTCC 2470, 24 h
[7] = test system: Staphylococcus aureus; test: Antibacterial activity against Staphylococcus aureus MTCC 96 […] after 24 hrs at 30 degC by well diffusion method; format: functional; details: MTCC 96, 24 h
[8] = test system: Staphylococcus aureus; test: Antibacterial activity against Staphylococcus aureus MLS-16 MTCC 2940 assessed as inhibition zone after 24 hrs at 30 degC by well diffusion method; format: functional; details: MLS-16 MTCC 2940, 24 h
[9] = test system: Bacillus subtilis; test: Antibacterial activity against Bacillus subtilis MTCC 121 assessed as inhibition zone after 24 hrs at 30 degC by well diffusion method; format: functional; details: MTCC 121, 24 h
[10] = test system: Escherichia coli; test: Antibacterial activity against Escherichia coli MTCC 739 assessed as inhibition zone after 24 hrs at 30 degC by well diffusion method; format: functional; details: MTCC 739, 24 h
[11] = test system: Pseudomonas aeruginosa; test: Antibacterial activity against Pseudomonas aeruginosa MTCC 2453 assessed as inhibition zone after 24 hrs at 30 degC by well diffusion method; format: functional; details: MTCC 2453, 24 h
[12] = test system: Raoultella planticola; test: Antibacterial activity against Klebsiella planticola MTCC 530 assessed as inhibition zone after 24 hrs at 30 degC by well diffusion method; format: functional; details: MTCC 530, 24 h
[13] = test system: Candida albicans; test: Antifungal activity against Candida albicans MTCC 3017 […] after 24 hrs at 30 degC by well diffusion method; format: functional; details: MTCC 3017, 24 h
[14] = Cytotoxicity against human IMR90 cells assessed as reduction in cell viability by MTT assay; format: cell-based; details: IMR-90
[15] = test system: IMR-90; test: Selectivity index, ratio of IC50 for human IMR90 cells to IC50 for human DU145 cells; format: functional
[16] = test system: A549; test: Selectivity index, ratio of IC50 for human IMR90 cells to IC50 for human A549 cells; format: functional
[17] = test system: SK-OV-3; test: Selectivity index, ratio of IC50 for human IMR90 cells to IC50 for human SKOV3 cells; format: functional
[18] = test system: IMR-90; test: Selectivity index, ratio of IC50 for human IMR90 cells to IC50 for human MCF7 cells; format: functional
[19] = test system: Pichia sporocuriosa; test: Fungicidal activity against Issatchenkia hanoiensis MTCC 4755 assessed as microbial killing after 24 hrs; format: functional; details: MTCC 4755, 24 h
[20] = test system: Candida albicans; test: Antifungal activity against Candida albicans MTCC 183 assessed as inhibition zone after 24 hrs at 30 degC by well diffusion method; format: functional; details: MTCC 183, 24 h
[21] = test system: Candida albicans; test: Antifungal activity against Candida albicans MTCC 227 assessed as inhibition zone after 24 hrs at 30 degC by well diffusion method; format: functional; details: MTCC 227, 24 h
[22] = test system: Candida albicans; test: Antifungal activity against Candida albicans MTCC 854 assessed as inhibition zone after 24 hrs at 30 degC by well diffusion method; format: functional; details: MTCC 854, 24 h
[23] = test system: Candida albicans; test: Antifungal activity against Candida albicans MTCC 1637 assessed as inhibition zone after 24 hrs at 30 degC by well diffusion method; format: functional; details: MTCC 1637, 24 h
[24] = test system: Candida albicans; test: Antifungal activity against Candida albicans MTCC 3018 assessed as inhibition zone after 24 hrs at 30 degC by well diffusion method; format: functional; details: MTCC 3018, 24 h
[25] = test system: Candida albicans; test: Antifungal activity against Candida albicans MTCC 3958 assessed as inhibition zone after 24 hrs at 30 degC by well diffusion method; format: functional; details: MTCC 3958, 24 h
[26] = test system: Candida albicans; test: Antifungal activity against Candida albicans MTCC 4748 assessed as inhibition zone after 24 hrs at 30 degC by well diffusion method; format: functional; details: MTCC 4748, 24 h
[27] = test system: Candida albicans; test: Antifungal activity against Candida albicans MTCC 7315 assessed as inhibition zone after 24 hrs at 30 degC by well diffusion method; format: functional; details: MTCC 7315, 24 h
[28] = test system: Candida parapsilosis; test: Antifungal activity against Candida parapsilosis MTCC 1744 assessed as inhibition zone after 24 hrs at 30 degC by well diffusion method; format: functional; details: Lodderomyces parapsilosis, MTCC 1744, 24 h
[29] = test system: [Candida] aaseri; test: Antifungal activity against Candida aaseri MTCC 1962 assessed as inhibition zone after 24 hrs at 30 degC by well diffusion method; format: functional; details: Yamadazyma aaseri, MTCC 1962, 24 h
[30] = test system: Nakaseomyces glabratus; test: Antifungal activity against Candida glabrata MTCC 3019 assessed as inhibition zone after 24 hrs at 30 degC by well diffusion method; format: functional; details: MTCC 3019, 24 h
[31] = test system: Pichia kudriavzevii; test: Antifungal activity against Candida krusei MTCC 3020 assessed as inhibition zone after 24 hrs at 30 degC by well diffusion method; format: functional; details: MTCC 3020, 24 h
[32] = test system: Pichia sporocuriosa; test: Antifungal activity against Issatchenkia hanoiensis MTCC 4755 assessed as inhibition zone after 24 hrs at 30 degC by well diffusion method; format: functional; details: MTCC 4755, 24 h
[33] = test system: Candida albicans; test: Fungicidal activity against Candida albicans MTCC 183 assessed as microbial killing after 24 hrs; format: functional; details: MTCC 183, 24 h
[34] = test system: Candida albicans; test: Fungicidal activity against Candida albicans MTCC 227 assessed as microbial killing after 24 hrs; format: functional; details: MTCC 227, 24 h
[35] = test system: Candida albicans; test: Fungicidal activity against Candida albicans MTCC 854 assessed as microbial killing after 24 hrs; format: functional; details: MTCC 854, 24 h
[36] = test system: Candida albicans; test: Fungicidal activity against Candida albicans MTCC 1637 assessed as microbial killing after 24 hrs; format: functional; details: MTCC 1637, 24 h
[37] = test system: Candida albicans; test: Fungicidal activity against Candida albicans MTCC 3017 assessed as microbial killing after 24 hrs; format: functional; details: MTCC 3017, 24 h
[38] = test system: Candida albicans; test: Fungicidal activity against Candida albicans MTCC 3018 assessed as microbial killing after 24 hrs; format: functional; details: MTCC 3018, 24 h
[39] = test system: Candida albicans; test: Fungicidal activity against Candida albicans MTCC 3958 assessed as microbial killing after 24 hrs; format: functional; details: MTCC 3958, 24 h
[40] = test system: Candida albicans; test: Fungicidal activity against Candida albicans MTCC 4748 assessed as microbial killing after 24 hrs; format: functional; details: MTCC 4748, 24 h
[41] = test system: Candida albicans; test: Fungicidal activity against Candida albicans MTCC 7315 assessed as microbial killing after 24 hrs; format: functional; details: MTCC 7315, 24 h
[42] = test system: Candida parapsilosis; test: Fungicidal activity against Candida parapsilosis MTCC 1744 assessed as microbial killing after 24 hrs; format: functional; details: Lodderomyces parapsilosis, MTCC 1744, 24 h
[43] = test system: [Candida] aaseri; test: Fungicidal activity against Candida aaseri MTCC 1962 assessed as microbial killing after 24 hrs; format: functional; details: Yamadazyma aaseri, MTCC 1962, 24 h
[44] = test system: Nakaseomyces glabratus; test: Fungicidal activity against Candida glabrata MTCC 3019 assessed as microbial killing after 24 hrs; format: functional; details: MTCC 3019, 24 h
[45] = test system: Pichia kudriavzevii; test: Fungicidal activity against Candida krusei MTCC 3020 assessed as microbial killing after 24 hrs; format: functional; details: MTCC 3020, 24 h

C=CCCCCCCCCC(=O)Nc1cc2c(cc1F)c(=O)c(C(=O)OCC)cn2CC
IC50 [1]: 87.3 µM | IC50 [2]: 66.5 µM | IC50 [3]: 91.2 µM | IC50 [4]: 64.6 µM | EC50 [5]: 147.5 µg/mL (≈ 332 µM) | MIC [6]: > 125 µg/mL | MIC [7]: > 125 µg/mL | MIC [8]: > 125 µg/mL | MIC [9]: > 125 µg/mL | MIC [10]: > 125 µg/mL | MIC [11]: > 125 µg/mL | MIC [12]: > 125 µg/mL | MIC [13]: > 125 µg/mL

CCCCCCCCCCCCCC(=O)Nc1cc2c(cc1F)c(=O)c(C(=O)OCC)cn2CC
IC50 [1]: 10.4 µM | IC50 [2]: 9.6 µM | IC50 [3]: 8.2 µM | IC50 [4]: 9.1 µM | IC50 [14]: 86.4 µM | Ratio IC50 [15]: 8.3 | Ratio IC50 [16]: 9 | Ratio IC50 [17]: 10.5 | Ratio IC50 [18]: 9.4 | EC50 [5]: 286 µg/mL (≈ 585 µM) | MIC [6]: > 125 µg/mL | MIC [7]: > 125 µg/mL | MIC [8]: > 125 µg/mL | MIC [9]: > 125 µg/mL | MIC [10]: > 125 µg/mL | MIC [11]: > 125 µg/mL | MIC [12]: > 125 µg/mL | MIC [13]: > 125 µg/mL

Cc1cc(C(C)(C)C)c(O)c(C(C)(C)C)c1 [BUTYLATED HYDROXYTOLUENE]
EC50 [5]: 28.5 µg/mL (≈ 129 µM)

Clc1ccc(COC(Cn2ccnc2)c2ccc(Cl)cc2Cl)c(Cl)c1 (centres undefined) [MICONAZOLE]
MFC [19]: 7.8 µg/mL (≈ 18.7 µM) | MIC [13]: 7.8 µg/mL (≈ 18.7 µM) | MIC [20]: 7.8 µg/mL (≈ 18.7 µM) | MIC [21]: 7.8 µg/mL (≈ 18.7 µM) | MIC [22]: 7.8 µg/mL (≈ 18.7 µM) | MIC [23]: 7.8 µg/mL (≈ 18.7 µM) | MIC [24]: 7.8 µg/mL (≈ 18.7 µM) | MIC [25]: 7.8 µg/mL (≈ 18.7 µM) | MIC [26]: 7.8 µg/mL (≈ 18.7 µM) | MIC [27]: 7.8 µg/mL (≈ 18.7 µM) | MIC [28]: 7.8 µg/mL (≈ 18.7 µM) | MIC [29]: 7.8 µg/mL (≈ 18.7 µM) | MIC [30]: 7.8 µg/mL (≈ 18.7 µM) | MIC [31]: 7.8 µg/mL (≈ 18.7 µM) | MIC [32]: 7.8 µg/mL (≈ 18.7 µM) | MFC [33]: 7.8 µg/mL (≈ 18.7 µM) | MFC [34]: 15.6 µg/mL (≈ 37.5 µM) | MFC [35]: 15.6 µg/mL (≈ 37.5 µM) | MFC [36]: 15.6 µg/mL (≈ 37.5 µM) | MFC [37]: 7.8 µg/mL (≈ 18.7 µM) | MFC [38]: 7.8 µg/mL (≈ 18.7 µM) | MFC [39]: 15.6 µg/mL (≈ 37.5 µM) | MFC [40]: 7.8 µg/mL (≈ 18.7 µM) | MFC [41]: 7.8 µg/mL (≈ 18.7 µM) | MFC [42]: 7.8 µg/mL (≈ 18.7 µM) | MFC [43]: 7.8 µg/mL (≈ 18.7 µM) | MFC [44]: 15.6 µg/mL (≈ 37.5 µM) | MFC [45]: 7.8 µg/mL (≈ 18.7 µM)

CCCCCCCC/C=C/CCCCCCCC(=O)Nc1cc2c(cc1F)c(=O)c(C(=O)OCC)cn2CC
EC50 [5]: 750.7 µg/mL (≈ 1380 µM) | MIC [6]: > 125 µg/mL | MIC [7]: > 125 µg/mL | MIC [8]: > 125 µg/mL | MIC [9]: > 125 µg/mL | MIC [10]: > 125 µg/mL | MIC [11]: > 125 µg/mL | MIC [12]: > 125 µg/mL | MIC [13]: > 125 µg/mL
